Assay results from PMC6130518, “Investigation of the effective components of the flowers of Trollius chinensis from the perspectives of intestinal bacterial transformation and intestinal absorption” (Pharmaceutical Biology, 2017).

Test system: Caco-2 cells
Test: MTT assay, non-toxic dose range
Type: cell-based, human
Conditions: 4 h, positive control
Method: The Caco-2 cells were seeded into 96-well plates as they were in logarithmic growth phase. Each well was added with 100 μL of the cell suspension (8.0 × 10^3 cells/mL) and incubated in 5% CO2 and constant temperature (37 °C) and humidity in the incubator. […] The cells were incubated under the same conditions for 4 h; then, 100 μL of 3-(4,5-dimethylthiazolzyl)-2,5-diphenyl tetrazolium bromide (MTT, Amresco, Radnor, PA) solution at the concentration of 0.5 mg/mL took the place of HBSS. After the cells were incubated under the same conditions for 4 h, the supernatant was replaced by 150 μL of dimethyl sulphoxide (DMSO, Sigma Chemical Co., Deisenhofen, Germany); then, the cells were shaken for 10 min. The absorption of the samples was measured on a microplate reader (BioTek Instruments, Inc., Winooski, VT) at the wavelength of 570 nm.
The following formula was used to calculate the cell survival rate=A/A0×100%, wherein, A represented the average absorbance value of the experiment groups, and A0 represented the average absorbance value of the control group.

`CC(=O)O[C@H]1C(=O)[C@@]2(C)[C@H]([C@H](OC(=O)c3ccccc3)[C@]3(O)C[C@H](OC(=O)[C@H](O)[C@@H](NC(=O)c4ccccc4)c4ccccc4)C(C)=C1C3(C)C)[C@]1(OC(C)=O)CO[C@@H]1C[C@@H]2O` [paclitaxel] was tested, and the “survival rate of the Caco-2 cells” value (0.02 mg/L) was 67.3%, the “survival rate of the Caco-2 cells” value (0.04 mg/L) was 45.5% and the “survival rate of the Caco-2 cells” value (0.08 mg/L) was 37.4%.
